Values belong to the molecule of their own block, whether it stands above or below them.
Columns and labels:
Factor XIa = Factor XIa (Homo sapiens, UniProt P03951); experiment: Factor XIa inhibition assay using fluorophore-quencher pair peptide substrate; format: biochemical
From the text: Biological Example 1: Factor XIa Inhibition Assay
Using Fluorophore-quencher Pair Peptide Substrate
A fluorescence intensity-based assay was used to monitor inhibition of Factor XIa. The peptide substrate, 5Fam-[…]-K5Tamra (purchased from New England Peptide) was chosen based on the […]. Conversion of zymogen FIX to its activated form, FIXa, occurs by proteolytic cleavage by FXIa at two sites, Arg146 and Arg180. The custom peptide used in this assay was based on the Arg146 cleavage site. The peptide substrate was designed with a fluorophore-quencher pair, where the fluorescence is quenched until FXIa cleaves the 8-mer peptide after the Arg residue.
Factor XIa FLINT assay was used with the following 5Fam-[…]-K5Tamra assay buffer: 50 mM Tris, pH 7.5, 100 mM NaCl, 5 mM CaCl2, 0.1 mg/mL BSA, 0.03% CHAPS was used. Assay buffer was prepared by mixing all ingredients fresh. 2×5Fam-[…]-K5Tamra peptide substrate was first prepared in 100% DMSO, then diluted 10 mM to 3 mM in 100% DMSO. Assay buffer was then added directly to the 3 mM stock of substrate to prepare the 30 μM 2× working concentration (15 μM final concentration). The 2× Factor XIa stock solution was prepared by diluting 6.562 μM stock in 1× assay buffer for a 200 pM working stock solution (100 pM final concentration).
Test compound(s) were run in an 11-point, 3-fold serial dilution with a final top compound concentration of […]. Final DMSO in assay was 2% DMSO. FXIa and compound were pre-incubated for 30 minutes and substrate was then added to initiate the reaction. The assay was linear using 100 pM FXIa greater than 30 minutes. More specifically, the assay was run as follows: • 100 nL of 1 mM test compound was dispensed into a black 384-well non-binding Greiner BioOne 784900 plate for 10 μM final concentration with 1% DMSO final concentration; • 5 μL of 1× assay buffer was dispensed to column 24 (low control) and 5 μL 2× Factor XIa solution was dispensed to columns 1-23 (column 23 high control); • the plate was centrifuged with a “cover” plate at 500 rpm for 1 min • the plate was pre-incubated for 30 minutes at room temperature with plate covered; • 5 μL of 2× 5Fam-[…]-K5Tamra peptide substrate was dispensed into the entire plate, columns 1-24; • the plate was centrifuged with a cover plate at 500 rpm for 1 min; • the plate was read kinetically monitoring fluorescence intensity on the BMG PHERAStar at room temperature, using fluorescence module F1 485 mm/520 mm.
(§1) Percent inhibition (IC50) curves were generated per compound tested, and data was analyzed using a 4-parameter logistic fit using GeneData Screener. […]

human plasma kallikrein = human plasma kallikrein (Homo sapiens, UniProt P03952); experiment: Kallikrein inhibition assay utilizing quenched AMC peptide substrate; format: biochemical; settings: read-out: Plasma kallikrein (PK) IC50
Sequence of human plasma kallikrein (P03952 391-638 limits assumed): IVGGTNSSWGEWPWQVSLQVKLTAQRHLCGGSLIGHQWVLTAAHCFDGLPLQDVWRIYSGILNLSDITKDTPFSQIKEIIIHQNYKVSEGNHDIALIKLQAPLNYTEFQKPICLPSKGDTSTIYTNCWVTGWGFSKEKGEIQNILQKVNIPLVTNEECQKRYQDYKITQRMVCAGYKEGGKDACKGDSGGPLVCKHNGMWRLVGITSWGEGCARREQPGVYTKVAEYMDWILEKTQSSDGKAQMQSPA
Sequence of human plasma kallikrein (P03952 20-390 partner limits assumed): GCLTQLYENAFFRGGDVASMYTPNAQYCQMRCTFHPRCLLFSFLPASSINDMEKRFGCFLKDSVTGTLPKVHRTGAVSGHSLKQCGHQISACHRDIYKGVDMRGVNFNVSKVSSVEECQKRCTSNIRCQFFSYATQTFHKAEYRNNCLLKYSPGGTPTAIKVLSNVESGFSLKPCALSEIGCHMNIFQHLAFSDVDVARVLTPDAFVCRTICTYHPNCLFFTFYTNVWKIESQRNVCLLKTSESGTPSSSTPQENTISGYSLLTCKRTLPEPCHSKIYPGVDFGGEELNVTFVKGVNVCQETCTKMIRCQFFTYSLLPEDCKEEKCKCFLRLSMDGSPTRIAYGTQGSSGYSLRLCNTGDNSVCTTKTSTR
Protocol: Biological Example 2: Kallikrein Inhibition Assay
Utilizing Quenched AMC Peptide Substrate
A fluorescence intensity-based assay was used to monitor inhibition of human plasma kallikrein. The peptide substrate, Z-Gly-Pro-Arg-AMC (Purchased from Bachem; Catalog #1-1150) was chosen based on its relatively low KM for kallikrein which enables running the assay at lower substrate concentrations to control background fluorescence. The kinetic parameters for this substrate were determined by fitting titration data to the Michaelis-Menten equation yielding a KM=40 μM, kcat=0.76 s^−1, and kcat/KM=18932 M^−1s^−1.
Kallikrein FLINT assay was used with the following Z-Gly-Pro-Arg-AMC assay buffer: 50 mM Tris, pH 7.5, 100 mM NaCl, 5 mM CaCl2, 0.1 mg/mL BSA, 0.03% CHAPS. Assay buffer was prepared by mixing all ingredients fresh. 2× Z-Gly-Pro-Arg-AMC peptide substrate was prepared by diluting 10 mM stock into 1× assay buffer for a 100 μM working concentration (50 μM final concentration). The 2× kallikrein stock solution was prepared by diluting 14.76 μM stock in 1× assay buffer for a 4 nM working stock solution (2 nM final concentration).
Test compound(s) were run in an 11-point, 3-fold serial dilution with a final top compound concentration of 1 μM. Final DMSO in assay: 2% DMSO. 2 nM kallikrein and test compound were pre-incubated for 30 minutes and 50 μM substrate was then added to initiate the reaction. The assay was linear using 2 nM kallikrein greater than 30 minutes. More specifically, the assay was run as follows: • 100 nL of 1 mM test compound was dispensed into a black 384-well non-binding Greiner BioOne 784900 plate for 10 μM final concentration with 1% DMSO final concentration; • 5 μL of 1× assay buffer was dispensed to columns 24 (low control) and 5 μL 2× human kallikrein enzyme solution was dispensed to columns 1-23 (column 23 high control); • the plate was centrifuged with a cover plate at 500 rpm for 1 min • the plate was pre-incubated for 30 minutes at room temperature with plate covered; • 5 μL of 2× Z-Gly-Pro-Arg-AMC peptide substrate was dispensed into the entire plate, columns 1-24; • the plate was centrifuged with a “cover” plate at 500 rpm for 1 min; • the plate was read kinetically monitoring fluorescence intensity on the BMG PHERAStar at room temperature, using fluorescence module F1 340 mm/440 mm.
as §1

human hepatocytes = experiment: In vitro metabolism in human cryopreserved hepatocytes; format: in vitro ADME; settings: positive control, 10 μM, 1×10^6 cells/mL, 3 hours
Protocol: In Vitro Metabolism of in Human Cryopreserved Hepatocytes
The human hepatocytes used for in vitro metabolism of the compound of formula (I-A) were purchased from Bioreclamation IVT (Westbury, NY); cryopreserved human hepatocytes (lot number: UYG).
Cryopreserved hepatocytes were rapidly thawed […] vials were placed in a 37° C. water bath for approximately 90 sec, then immediately added to pre-warmed hepatocyte thawing media. The cells were resuspended within the media and then centrifuged at 700×g for 7 minutes at room temperature.
The supernatant was discarded, and the cells were resuspended in 2 mL of Krebs-Henseleit buffer containing 12.5 mM HEPES pH 7.4 (KHB). Cell viability and yield were determined by Trypan Blue exclusion. The hepatocytes were then diluted in KHB to a cell concentration of 2×10^6 cells/mL (500 μL/well in 10 mL glass tubes). The tubes were placed on a rotary shaker in a humidifier incubator supplied with 5% CO2 and allowed 15 minutes acclimation at 37° C. prior to use. The compound of formula (I-A) or positive control, diclofenac (10 μM), in KHB was then added to the hepatocytes to achieve a final concentration of 10 μM and cell concentration of 1×10^6 cells/mL (1000 μL final incubation volume). Cells were incubated for zero or 3 hours. At the end of the incubation period, the cells were quenched with 6-volumes of ice-cold acetonitrile containing 0.02% formic acid, vortexed and sonicated (5 min). Precipitated proteins were pelleted by centrifugation (3000 rpm, 10 minutes, 4° C.) and the supernatant was transferred to borosilicate tubes and evaporated to dryness under a gentle stream of nitrogen.
The resulting residue after evaporation was reconstituted in 250 μL of water:acetonitrile (9:1 v/v) containing 0.01% formic acid with sonication and vortexing to aid solubilization of drug-derived materials prior to filtration using 0.45μ nylon filter at 10,000×g at room temperature for 10 minutes. The filtrate was transferred to a 96-well plate for liquid chromatography/ultraviolet/mass spectrometry (LC-UV/MS) analysis.
LC/UV/MS (Liquid Chromatography/Ultraviolet/Mass Spectrometry)
LTQ/Orbitrap (Thermo Scientific, Inc., Bremen, Germany) was carried out by data-dependent accurate mass measurements at resolving powers of 15,000 for full scan MS and 7,500 for MS^2 (also known as MS/MS or tandem mass spec) under single ion locked mass mode.
Quantification of the unchanged drug and its metabolites was carried out by integration of the individual chromatographically separated UV peaks and provided the percentage of total peak area.

Sequence of Factor XIa (P03951 388-625 limits assumed): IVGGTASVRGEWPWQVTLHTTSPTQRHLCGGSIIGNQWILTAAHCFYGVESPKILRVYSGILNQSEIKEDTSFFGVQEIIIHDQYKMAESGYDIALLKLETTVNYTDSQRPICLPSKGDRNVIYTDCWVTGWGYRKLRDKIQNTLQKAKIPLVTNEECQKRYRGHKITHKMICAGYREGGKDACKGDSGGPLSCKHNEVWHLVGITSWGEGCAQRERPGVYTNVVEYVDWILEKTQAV
Sequence of Factor XIa (P03951 19-387 partner limits assumed): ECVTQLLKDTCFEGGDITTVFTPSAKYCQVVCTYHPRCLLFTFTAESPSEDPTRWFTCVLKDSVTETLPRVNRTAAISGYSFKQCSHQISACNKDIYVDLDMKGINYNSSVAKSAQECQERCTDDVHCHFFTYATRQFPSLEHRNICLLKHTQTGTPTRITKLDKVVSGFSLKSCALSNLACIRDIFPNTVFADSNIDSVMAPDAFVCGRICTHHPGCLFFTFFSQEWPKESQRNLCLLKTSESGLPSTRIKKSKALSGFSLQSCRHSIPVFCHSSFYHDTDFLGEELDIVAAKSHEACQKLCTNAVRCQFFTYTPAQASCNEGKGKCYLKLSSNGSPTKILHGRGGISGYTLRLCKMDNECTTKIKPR

SMILES: [2H]c1nnnn1-c1ccc(Cl)c(F)c1C1=CC(=O)N2[C@@H](CC[C@@H]2c2ncc(-c3ccnc(C([2H])([2H])O)c3F)[nH]2)C1 (stereo in doubt) [Compound of formula (I-J), (3R,8aS)-7-(3-Chloro-2-fluoro-6-(1H-tetrazol-1-yl-d)phenyl)-3-(4-(3-fluoro-2-(hydroxymethyl-d2)pyridin-4-yl)-1H-imidazol-2-yl)-2,3,8,8a-tetrahydroindolizin-5(1H)-one]
- IC50 (Factor XIa): 4.1 nM
- IC50 (human plasma kallikrein): 32 nM

SMILES: [2H]C([2H])(O)c1nccc(-c2cnc([C@@H]3CCC4([2H])CC(c5c(-n6cnnn6)ccc(Cl)c5F)=CC(=O)N34)[nH]2)c1F (single isomer, unassigned) [Compound of formula (I-F), (3S,8aR*)-7-(3-Chloro-2-fluoro-6-(1H-tetrazol-1-yl)phenyl)-3-(5-(3-fluoro-2-(hydroxymethyl-d2)pyridin-4-yl)-1H-imidazol-2-yl)-2,3,8,8a-tetrahydroindolizin-5(1H)-one-8a-d]
- IC50 (Factor XIa): 5.1 nM
- IC50 (human plasma kallikrein): 34 nM

SMILES: O=C(O)Cc1ccccc1Nc1c(Cl)cccc1Cl [diclofenac, reference compound]
- turnover from human hepatocytes (human hepatocytes): 89%

Second part, the molecule after the results:

- IC50 (Factor XIa): 3.9 nM
SMILES: [2H]C1([2H])C[C@@H](c2ncc(-c3ccnc(CO)c3F)[nH]2)N2C(=O)C=C(c3c(-n4cnnn4)ccc(Cl)c3F)C([2H])([2H])[C@]21[2H] (single isomer, unassigned) [Compound of formula (I-G)]

- IC50 (human plasma kallikrein): 9.7 nM
SMILES: [2H]C1([2H])C(c2c(-n3cnnn3)ccc(Cl)c2F)=CC(=O)N2[C@H](c3ncc(-c4ccnc(CO)c4F)[nH]3)CC[C@@]21[2H] (single isomer, unassigned) [Compound of formula (I-K)]
